The values below come from paper PMC7053711, “A G protein–coupled receptor mediates neuropeptide-induced oocyte maturation in the jellyfish Clytia” (PLoS Biology, 2020).

The subject of assay [1] is MIHR mutant (n5-23, n5-13) isolated female gonads. As to the kind of experiment: Gonad spawning assay, MIHR mutant isolated gonads. More on the design: species or system Clytia hemisphaerica. The following applies: isolated MIHR mutant gonads, 4 mM Br-cAMP, washed after 5 minutes. How it is done:
We performed a series of oocyte maturation and spawning assays, comparing the responses of wild-type and MIHR mutant isolated gonads and oocytes to different stimuli (Fig 4).
Sexually mature MIHR mutant medusae from colonies n5-13 and n5-23 and wild-type medusae were cultured on the same day–night cycle. Individual gonads were dissected in the evening after afternoon spawning. To test the light response, one group of each was transferred to 100 μL MFSW in wells of 96-well plastic plates, covered overnight, and re-exposed to white light the following day. To test responses to MIH and cAMP, other groups of dissected gonads were cultured overnight in constant light, then transferred to 96-well plastic plates for two hours. MIH was added to wells as an equal volume of 200 nM WPRPamide (GenScript) stock in MFSW was added to give a final concentration of 100 nM. Alternatively, a stock of 20 mM bromo adenosine 3′,5′cyclic monophosphate (Br-cAMP–Fluka; Sigma Aldrich) in distilled water was added to give a final concentration of 4 mM. Gonads were washed after 5 minutes incubation in Br-cAMP. Oocyte maturation was scored after 30 minutes as germinal vesicle breakdown (GVBD), i.e., visible dissolution of the oocyte nuclear membrane upon entry into M phase, which in all cases was followed by spawning about 1 hour later.
(§1) Supplementary file pbio.3000614.s013.xlsx: S3 Data Numerical data corresponding to Fig 4A and 4C. The first tab collects all the raw data from 3 independent gonad spawning assays. Information corresponding to the Fisher exact tests is also shown. […] The means and standard deviations were used to prepare the graph in Fig 4C. Information corresponding to the Fisher exact tests is also shown. (XLSX) Click here for additional data file.

Assay [2] has as its system fully grown oocytes isolated from WT gonads. As to the kind of experiment: Oocyte maturation assay, wild-type isolated oocytes (GVBD). Type of assay: cell-based, Clytia hemisphaerica.
Excerpt: (§2) Fig 4 Oocyte maturation failure in MIHR mutant medusae. Oocyte maturation assays performed using isolated gonads (A, B) or isolated oocytes (C) from MIHR mutant jellyfish compared to WT. In A and C, bar heights represent mean percentages of 3 independent experiments and error bars show standard deviations. Total gonad or oocyte numbers for each treatment are indicated in gray. (A) Spawning response of isolated gonads from WT and n5-23 female medusae. Three treatments were compared as indicated above each panel: Light: light stimulation after incubation in the dark; MIH: treatment of light-maintained gonads with 100 nM WPRPamide; cAMP: treatment of light-maintained gonads with 4 mM Br-cAMP. […] Full datasets from three independent experiments are available in S3 Data. (B) Light microscope images illustrating gonads from an equivalent experiment performed with n5-13 female MIHR mutant medusae 120 minutes after the indicated treatments. Scale bar: 500 μm. […] Full datasets from 3 independent experiments are available in S3 Data. Br-cAMP, bromoadenosine 3′,5′-cyclic monophosphate; cAMP, cyclic adenosine monophosphate; KO, knockout; MIH, maturation-inducing hormone; MIHR, MIH receptor; WT, wild-type.
(§3) Fully grown oocytes were isolated manually from dissected gonads of wild-type and MIHR KO mutant jellyfish prepared as above. Maturation assays were performed in wells of 96-well plates or small plastic petri dishes lined with 2% agarose in MFSW. Spontaneous maturation occurs at a low frequency in control oocytes. To test MIH-induced maturation, 10 μL WPRPamide from 1 μM solution in MFSW was added to a final concentration of 100 nM. In some experiments, Br-cAMP from a 20 mM stock in H2O was used at a final concentration of 4 mM. GVBD was scored at 30 minutes, every 5 minutes, depending on experiments.
as §1

For assay [3], the system named is fully grown oocytes isolated from MIHR mutant (n5-23) gonads. Briefly: Oocyte maturation assay, MIHR mutant isolated oocytes (GVBD). Type of assay: cell-based, Clytia hemisphaerica.
Excerpt: as §2, §3, §1

The next assay relates to hydrozoan oocytes. The following applies: cell-permeable analogue of cAMP; ref [3],[21]; cited from earlier work. The text has this:
We performed a series of oocyte maturation and spawning assays, comparing the responses of wild-type and MIHR mutant isolated gonads and oocytes to different stimuli (Fig 4). […] I ...

Assay [4] relates to Clytia MIHR. Briefly: GPCR deorphanization assay, luminescence response to peptides at 1 μM (CHO-K1 cells, Gα-16, GFP-apoaequorin). Type of assay: cell-based, Clytia hemisphaerica. Conditions: peptide 1E-6M, normalised to Platynereis FLamide receptor + 1 μM AKYFL-NH2, n = 3. An excerpt:
We used a cell culture–based GPCR deorphanization assay to identify the MIH receptor from our candidate shortlist. cDNAs for each candidate were transfected into Chinese Hamster ovary K1 (CHO-K1) cells along with the promiscuous Gα protein Gα-16, and an aequorin-GFP luminescence reporter that measures Ca^2+ mobilization downstream of this heterologous Gα protein [27, 28]. We first screened the 16 candidate Clytia GPCRs against a mixture of 33 synthetic amidated peptides (including MIHs) predicted to be generated from previously identified putative Clytia neuropeptide precursors and one additional one identified from transcriptome data. Given our imperfect knowledge of pro-peptide processing in cnidarians, some of the synthetic peptides may not correspond to endogenous peptides. Only one of the 16 GPCRs was activated by this peptide mixture. This receptor responded well to all 4 synthetic Clytia MIH tetrapeptides, as well as to related Cladonema MIH peptides that can also activate Clytia oocyte maturation, but not to other Clytia peptide mixtures or poorly active MIH penta-/tripeptides. We termed this Clytia GPCR the Maturation Inducing Hormone Receptor (MIHR). The activity of individual peptides at 1 μM to stimulate the MIHR closely matched their in vivo ability to induce oocyte maturation (Fig 1B).
(§4) Cell culture GPCR ligand response assays were performed as described. Briefly, CHO-K1 cells were cultured in Ham’s F12 Nut Mix medium (Thermo Fisher Scientific) with 10% foetal bovine serum. Cells were seeded in 96-well plates at approximately 10,000 cells/well and transfected the following day with pcDNA3.1(+) plasmids encoding each of the 16 candidate Clytia GPCRs (S2 Text), the promiscuous Gα-16 protein [65], and a reporter construct GFP-apoaequorin [66] (60 ng each) using the transfection reagent TurboFect (Thermo Fisher Scientific). After 2 days of expression, the medium was removed and replaced with Hank’s balanced salt solution (HBSS) supplemented with 1.8 mM Ca2+, 10 mM glucose, and […] coelenterazine h (Promega, Madison, WI). After incubation at 37 °C for 2 hours, cells were tested by adding synthetic peptides (GenScript) in HBSS supplemented with 1.8 mM Ca2^+ and 10 mM glucose. A list of all synthetic peptides used is provided in S2 Table. Luminescence was recorded for 45 seconds in a plate reader (BioTek Synergy Mx or Synergy H4; BioTek, Winooski, VT). Data were integrated over the 45-second measurement period and recorded as technical triplicates in each case. Data were normalized using the response of Platynereis FLamide receptor to 1 μM AKYFL-NH2 [28]. Dose–response curves were obtained using concentrations between 0.01 nM and 100 μM for each peptide. Data for dose–response curves were recorded in triplicate for each concentration and the experiment was repeated independently 3 times. Dose–response curves were fitted with a four-parameter curve using Prism 6 (GraphPad, La Jolla, CA) and were normalized to the calculated upper plateau values (100% activation).
Supplementary file pbio.3000614.s011.xlsx: S1 Data Numerical data corresponding to Fig 1B. Raw luminescence values obtained in triplicate for each of the neuropeptide combinations tested against the MIHR in the deorphanization assay are provided. In the right-hand table, the raw luminescence values obtained in quadruple for the positive and negative controls are provided. In the lower table, means and standard errors of the mean of the luminescence values obtained for each neuropeptide combination and controls are also shown, as well as the values normalized to the positive control, which were used to prepare the graph shown in Fig 1B. MIHR, MIH receptor. (XLSX) Click here for additional data file.

Assay [5] concerns Clytia MIHR. As to the kind of experiment: Dose–response curves of Clytia MIHR, luminescence (CHO-K1 cells, Gα-16, GFP-apoaequorin). Type of assay: cell-based, Clytia hemisphaerica. Also noted: key to Span (best-fit value) / Bottom (best-fit value): % activation, normalized to fitted upper plateau (100%). Conditions: for EC50: four-parameter fit, variable slope, triplicate; for HillSlope / LogEC50: best-fit value; for Bottom / Span / Top: best-fit value (luminescence); for Bottom (best-fit value) / HillSlope (best-fit value) / LogEC50 (best-fit value) / Span (best-fit value): log(agonist) vs. response, variable slope (four parameters), fit of third dataset. How it is done: The Clytia MIH amidated peptides are produced from two precursor genes Che-pp4 (generating multiple copies of WPRAamide, WPRYamide, and WPRPamide) and Che-pp1 (multiple copies of WPRPamide and RPRGamide).
as §4
Supplementary file pbio.3000614.s012.xlsx: S2 Data Numerical data corresponding to Fig 1C. The first three tabs show statistical values obtained using Prism 6 software (GraphPad, La Jolla, CA) from the raw luminescence values for 3 independent dose–response experiments. The raw luminescence values are shown, as well as the values normalized with respect to the maximum. […] MIH, maturation-inducing hormone. (XLSX) Click here for additional data file.

Setting [6] is: 100 nM WPRPamide or 4 mM Br-cAMP.

Entries after “also recorded” stand apart in the source; their conditions may differ. Peptide text beside a SMILES is read from it.

As for `Nc1ncnc2c1nc(Br)n2[C@@H]1O[C@@H]2COP(=O)(O)O[C@H]2[C@H]1O` [Br-cAMP, bromoadenosine 3′,5′-cyclic monophosphate, reference compound], in assay [1], the “oocyte maturation and spawning of MIHR mutant gonads, Br-cAMP treatment” value is “rescued meiotic maturation and spawning; also recorded: rescued the phenotype of MIHR mutant gonads, efficiently triggering oocyte maturation and spawning; also recorded: provoked oocyte maturation and spawning”. In addition, in assay [2] (setting [6]), the “maturation of isolated WT oocytes” value is on record as “triggered maturation of WT oocytes” and the “time to visible GVBD, isolated WT oocytes” value was 20 to 30 min. For the same molecule, in assay [2] (cAMP (4mM BrcAMP), WT, mean of 3 replicates, Sdev 14.23), the “Percentage of Oocyte maturation, Mean” value is listed as 84.33. The “maturation of isolated MIHR mutant oocytes, Br-cAMP” value in assay [3] (4 mM Br-cAMP) is recorded as “promoted maturation of isolated fully grown MIHR mutant oocytes; also recorded: only Br-cAMP induced maturation of MIHR KO oocytes”. Besides, the “Percentage of Oocyte maturation, Mean” value in assay [3] (cAMP (4mM BrcAMP), MIHR KO, mean of 3 replicates, Sdev 6.00) was determined as 89.91. Also, the hydrozoan oocyte maturation result with hydrozoan oocytes is on record as “induces hydrozoan oocyte maturation”.

As to `N=C(N)NCCC[C@H](NC(=O)[C@@H]1CCCN1C(=O)[C@@H](N)CCCNC(=N)N)C(=O)N[C@@H](Cc1ccc(O)cc1)C(N)=O` [RPRYa] (H-RPRY-NH2; N-terminus assumed), the “Normalised response (to positive control), mean” value in the assay on Clytia MIHR [4] was determined as 0.39. In the assay on Clytia MIHR [5] (dataset/experiment 1), the EC50 – broadly, the concentration needed to bring the measured effect to its halfway point – was found to be 57.7 nM. Also, the 50% effective concentration (EC50) in the assay with Clytia MIHR [5] (dataset/experiment 2) turned out to be 164 nM. Besides, in the assay with Clytia MIHR [5] (first dataset), the HillSlope is given as 1.301, the LogEC50 is on record as -7.239, the Bottom stood at 997.1 and the Span came out at 60319. The Top with Clytia MIHR [5] (first dataset) is 61316. In the assay on Clytia MIHR [5], the “Bottom (best-fit value)” value is 5.512, the “HillSlope (best-fit value)” value came out at 1.159, the “LogEC50 (best-fit value)” value is -6.887 and the “Span (best-fit value)” value turned out to be 94.5. In the assay with Clytia MIHR [5] (second dataset), the HillSlope stood at 1.165, the LogEC50 was -6.785, the Bottom is recorded as 2011 and the Span came to 27358. For the same molecule, the Top in the assay with Clytia MIHR [5] (second dataset) is reported as 29369. In addition, the “EC50 / relative activity on MIHR” value in the assay on Clytia MIHR [5] (three independent dose–response experiments) is “highest activity”.

For the molecule `C[C@H](NC(=O)[C@H](CCCNC(=N)N)NC(=O)[C@@H]1CCCN1C(=O)[C@@H](N)Cc1c[nH]c2ccccc12)C(N)=O` [WPRAa] (H-WPRA-NH2; N-terminus assumed), the “Normalised response (to positive control), mean” value in the assay on Clytia MIHR [4] amounted to 0.2465. Moreover, the EC50 in the assay on Clytia MIHR [5] (dataset/experiment 1) stood at 140 nM. Also, in the assay on Clytia MIHR [5] (dataset/experiment 2), the 50% effective concentration (EC50) came out at 940 nM. For the same molecule, in the assay on Clytia MIHR [5] (first dataset), the HillSlope is reported as 1.505, the LogEC50 is given as -6.854, the Bottom came out at 1277 and the Span stood at 50384. In addition, the Top in the assay with Clytia MIHR [5] (first dataset) is listed as 51660. Moreover, in the assay with Clytia MIHR [5], the “Bottom (best-fit value)” value stood at 12.04, the “HillSlope (best-fit value)” value was 1.48, the “LogEC50 (best-fit value)” value is on record as -6.272 and the “Span (best-fit value)” value worked out at 87.97. In the assay with Clytia MIHR [5] (second dataset), the HillSlope came out at 1.06, the LogEC50 was -6.027, the Bottom is 2165 and the Span turned out to be 21649. Moreover, the Top in the assay with Clytia MIHR [5] (second dataset) is reported as 23814.
